Series [1] concerns ability of acetylcholine to provoke red tears in rats. Description: Rat chromodacryorrhoea test of Burgen. The format is in vivo. As to conditions: for Potency, Rat chromod.: IP, relative to neostigmine (1.0); for in vivo potency versus neostigmine: rat chromodacryorrhoea, in words. The method, then:
(§1) In vivo testing was carried out employing the mouse miosis test of Schneider R, J. Pharm. Pharmacol. 22, 298 (1970) in which antiacetylcholinesterases induce constriction of the pupil in the eye of the mouse, and the rat chromodacryorrhoea test of Burgen A.S.V.Brit.J.Pharmacol. 4; 185 (1949) in which antiacetylcholinesterases potentiate the ability of acetylcholine to provoke red tears in rats. Both tests enable the potency and duration of action of antiacetylcholinesterases to be assessed.

Series [2] has as its target T1, acetylcholinesterase (Homo sapiens, UniProt P22303).
T1 construct: washed human red cells as the source of acetylcholinesterase; from tissue; host or cells: washed human red cells
The series is described as follows: In vitro anticholinesterase activity, Michel method (acetylcholine substrate, washed human red cells as enzyme source). The format is biochemical. The method, then: Screening for anticholinesterase activity was carried out in vitro by the Michel method (J. Lab. Clin. Med 34, 1564, (1949)) using acetylcholine as substrate, washed human red cells as the source of acetylcholinesterase.

The test system of series [3] is tubocurarine-induced muscle blockade. The series is described as follows: Reversal of tubocurarine-induced muscle blockade in cats (anterior tibialis twitch). The format is in vivo. The note with it: Felis catus, iv; Cat; injected into the femoral vein; read-out: Dose necessary to produce maximum anti-curare effect. From the text:
(§2) D-Tubocurarine is used clinically to produce relaxation of skeletal muscles in patients undergoing certain surgical procedures. Following the completion of surgery antiacetylcholinesterases are used to reverse this relaxation. Experiments have been carried out to measure the ability of the compounds of the invention to reverse tubocurarine-induced muscle blockade in rats and cats.
(§3) The method was based on that of Zaimis E, J. Physiol 122, 238 (1953) in which animals were anaesthetised and the left hind limb clamped ridigly in a horizontal position with the tendon of the anterior tibialis muscle attached to a flat spring myograph. Twitches of the anterior tibialis muscle were induced by supramaximal electrical stimulation of the tibial nerve and recorded on a strip recorder. Drugs dissolved in 0.9% saline were injected into the femoral vein. During an experiment the dose of tubocurarine necessary to establish a partial (80 to 90%) blockade of neuromuscular transmission was established an anticholinisterase drugs were subsequently injected at the time of maximum blockade. Recovery achieved after the administration of an antiacetylcholinesterase was compared with the recovery after tubocurarine alone.

Series [4] is described as follows: Intravenous LD50 in rats and therapeutic ratio. The note with it: for margin of safety when used in man: expected from the rat therapeutic ratios; for selectivity ratio / LD50: rat, in vivo, rats; for selectivity ratio: iv, ratio of LD50 to the dose giving maximum tubocurarine reversal; for LD50: intravenous. It counts as in vivo, rat. From the text:
The intravenous LD50 has been determined in rats for the three above mentioned drugs and from the results obtained the therapeutic ratios (defined as the ratio of LD50 to the dose giving maximum tubocurarine reversal) have been calculated: […]

Series [5] concerns the target T2, bovine erythrocyte acetylcholinesterase (Bos taurus, UniProt P23795).
T2 construct: bovine erythrocyte acetylcholinesterase as enzyme; from tissue; host or cells: bovine erythrocytes
The series is described as follows: In vitro anticholinesterase test, method of Ellmann (acetylthiocholine substrate, Lineweaver-Burk, Ki). The format is biochemical. The note with it: for Ki: acetylthiocholine substrate, bovine erythrocyte acetylcholinesterase, competitive conditions; for antiacetylcholinesterase potency versus neostigmine: from Ki, in words. Here is the method:
In vitro testing of compounds was carried out by the method of Ellmann, Biochem. Pharmacol. 7, 88 (1961) with acetylthiocholine as substrate and bovine erythrocyte acetylcholinesterase as enzyme. Reaction rates were determined with and without inhibitor under competitive conditions (i.e. the substrate was added before the inhibitor). Results were plotted by the Lineweaver-Burk method and these plots were used to determine inhibitor constants (Ki values).

Another series concerns muscarinic activity. The series is described as follows: Muscarinic activity in animal experimentation. It counts as in vivo.
Series [6] concerns tubocurarine-induced muscle blockade. The series is described as follows: Reversal of tubocurarine-induced muscle blockade in rats (anterior tibialis twitch). It counts as in vivo. The note with it: iv; Rat; injected into the femoral vein; read-out: Dose necessary to produce maximum anti-curare effect.
Description: as §2, §3

The subject of series [7] is constriction of the pupil in the eye of the mouse. Description: Mouse miosis test of Schneider. It counts as in vivo. The note with it: for Potency, Mouse Miosis: SC, relative to neostigmine (1.0); for in vivo potency versus neostigmine: mouse miosis, in words. Here is the method:
as §1

Series [8] has as its system neuromuscular effects of tubocurarine. The series is described as follows: Reversal of tubocurarine neuromuscular effects in man (human volunteers; anterior compartment leg muscle twitch). The format is in vivo. As to conditions: for recovery from tubocurarine block: I.V. in saline, 0.6 to 0.8 mg methobromide or 2.5 mg neostigmine (after 1.2 mg atropine). Here is the method: Substantiation for some of these estimates has come from the results of tests carried out in human volunteers. In these experiments contractions of the anterior compartment leg muscles were induced by supramaximal stimulation of the lateral popliteal nerve. After recording a period of control activity, tubocurarine was administered as a slow I.V. infusion until the muscle twitch height was reduced to approximately 50% of control levels. Three minutes later the anticholinesterase was administered (I.V. in saline) and the twitch height monitored until control levels were re-attained.

In series [9] the test system is acetylcholinesterase. As to conditions: after dosage; as thought by some workers; cited from earlier work.
The test system of series [10] is neuromuscular effects of tubocurarine. As to conditions: in the clinic; cited from earlier work.

T2 sequence (P23795 other isoform, or with tags, fused parts or gaps): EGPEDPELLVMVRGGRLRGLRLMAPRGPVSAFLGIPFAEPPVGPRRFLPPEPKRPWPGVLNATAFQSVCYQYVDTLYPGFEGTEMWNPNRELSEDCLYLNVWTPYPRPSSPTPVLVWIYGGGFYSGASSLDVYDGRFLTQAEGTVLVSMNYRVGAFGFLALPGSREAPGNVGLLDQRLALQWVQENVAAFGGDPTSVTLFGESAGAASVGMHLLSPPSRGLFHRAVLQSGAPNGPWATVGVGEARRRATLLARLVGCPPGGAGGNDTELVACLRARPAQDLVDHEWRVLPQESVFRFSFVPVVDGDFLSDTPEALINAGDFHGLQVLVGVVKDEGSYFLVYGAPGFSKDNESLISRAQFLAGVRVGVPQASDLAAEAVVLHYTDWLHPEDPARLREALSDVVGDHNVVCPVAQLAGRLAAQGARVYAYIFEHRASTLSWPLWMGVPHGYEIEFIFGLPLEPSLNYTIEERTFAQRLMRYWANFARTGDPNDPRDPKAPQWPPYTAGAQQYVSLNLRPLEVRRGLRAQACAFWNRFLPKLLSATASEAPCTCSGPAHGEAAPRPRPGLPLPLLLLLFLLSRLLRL
T1 sequence (P22303 other isoform, or with tags, fused parts or gaps): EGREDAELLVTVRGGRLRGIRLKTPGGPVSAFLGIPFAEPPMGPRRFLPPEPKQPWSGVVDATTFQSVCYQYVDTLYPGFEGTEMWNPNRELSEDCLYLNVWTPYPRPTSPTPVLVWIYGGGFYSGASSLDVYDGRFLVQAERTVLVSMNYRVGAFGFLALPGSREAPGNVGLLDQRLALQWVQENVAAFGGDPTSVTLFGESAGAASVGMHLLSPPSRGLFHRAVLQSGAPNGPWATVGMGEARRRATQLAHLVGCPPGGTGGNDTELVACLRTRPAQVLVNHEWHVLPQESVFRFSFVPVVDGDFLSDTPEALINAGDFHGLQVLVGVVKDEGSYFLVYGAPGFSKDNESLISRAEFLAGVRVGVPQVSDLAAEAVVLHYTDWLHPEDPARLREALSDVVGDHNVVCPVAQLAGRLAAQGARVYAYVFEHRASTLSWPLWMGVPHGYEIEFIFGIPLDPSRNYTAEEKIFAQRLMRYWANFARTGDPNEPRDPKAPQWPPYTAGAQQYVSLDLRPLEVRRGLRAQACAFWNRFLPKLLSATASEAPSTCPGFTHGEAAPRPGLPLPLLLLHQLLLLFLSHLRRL

On to `C[N+]1([C@@H]2CCCC[C@@H]2c2ccccc2)CCCC1` (relative stereo) [Example 1, cis-2-Phenyl-1-pyrrolidinocyclohexane Methiodide], for which, in [1], the “Potency, Rat chromod.” value is listed as 2.0 and the “in vivo potency versus neostigmine” value is reported as “more potent than neostigmine”. This molecule also gave an IC50 at acetylcholinesterase [2] of 200 nM. Besides, in series [3], the ED (maximum effect) is 0.1 mg/kg. Also, in [4], the “margin of safety when used in man” value is “wide margin of safety”, the selectivity ratio is 7.2 and the LD50 turned out to be 1.5 mg/kg. In [5], the Ki was 7.7 nM and the “antiacetylcholinesterase potency versus neostigmine” value is on record as “more potent than neostigmine”. The muscarinic activity entry in the series with muscarinic activity is given as “less muscarinic activity”. In addition, the ED (maximum effect) in series [6] came to 0.1 mg/kg. For the same molecule, in series [7], the “Potency, Mouse Miosis” value was 1.6 and the “in vivo potency versus neostigmine” value is given as “more potent than neostigmine”.
For `CCCC(=O)Oc1cccc([C@@H]2CCCC[C@@H]2[N+]2(C)CCCC2)c1` (relative stereo) [Example 5, cis-2-(3-Butyryloxyphenyl)-1-pyrrolidinocyclohexane methiodide], the midpoint of inhibition at acetylcholinesterase [2], the IC50, lay at 20 nM.
Turning to `Cc1ccc([C@H]2CCCC[C@H]2[N+]2(C)CCCC2)cc1` (relative stereo) [Example 7], half-maximal inhibition against acetylcholinesterase [2] (IC50) required 1000 nM.
In turn, `Cc1cccc([C@H]2CCCC[C@H]2[N+]2(C)CCCC2)c1` (relative stereo) [Example 8] returned an IC50 against acetylcholinesterase [2] of 6000 nM.
For the molecule `C[N+]1([C@@H]2CCCC[C@@H]2c2ccc(Cl)cc2)CCCC1` (relative stereo) [Example 10], the IC50 against acetylcholinesterase [2] stood at 200 nM.
Take `C[N+]1([C@@H]2CCC[C@@H]2c2cccc(O)c2)CCCC1` (relative stereo) [Example 14]: the IC50 on acetylcholinesterase [2] is 100 nM.
In the case of `C[N+]1([C@@H]2CCCC[C@@H]2c2cc(O)ccc2O)CCCC1` (relative stereo) [Example 16], at acetylcholinesterase [2], 10 nM corresponded to half-maximal inhibition (IC50).
`C[N+]1([C@@H]2CCCC[C@H]2c2cccc(O)c2)CCCC1` (relative stereo) [trans-2-(3-hydroxyphenyl)-1-pyrrolidinocyclohexane methiodide, reference compound]: the IC50 on acetylcholinesterase [2] worked out at 100000 nM. Also, the “activity of cis compound relative to trans compound (fold as active)” value at acetylcholinesterase [2] (Example 11 versus corresponding trans compound) is recorded as ~5000 ×.
On to `C[N+]1([C@@H]2CCCC[C@@H]2c2cccc(O)c2)CCCC1` (stereo in doubt) [Example 2, cis-2-(3-Hydroxyphenyl)-1-pyrrolidinocyclohexane Methobromide], for which, at acetylcholinesterase [2], the IC50 was found to be 20 nM. Besides, the “incidence of muscarinic effects” value in series [8] (0.6 to 0.8 mg I.V. versus 2.5 mg neostigmine with 1.2 mg atropine) is on record as “less than that produced by the neostigmine/atropine combination”. In [8], the “recovery from tubocurarine block” value was “Prompt recovery”.
Consider `C[N+]1([C@H]2CCCC[C@H]2c2cccc(O)c2)CCCC1` (stereo in doubt) [Example 11, cis-2-(3-hydroxyphenyl)-1-pyrrolidinocyclohexane methiodide], for which, in series [1], the “Potency, Rat chromod.” value is 6.0 and the “in vivo potency versus neostigmine” value is listed as “more potent than neostigmine”. For the same molecule, on acetylcholinesterase [2], the IC50 worked out at 20 nM. Further, the ED (maximum effect) in series [3] came out at 0.03 mg/kg. In addition, in series [4], the “margin of safety when used in man” value is “wide margin of safety”, the selectivity ratio came to 15 and the LD50 was 0.18 mg/kg. Also, in series [5], the Ki is 7.3 nM and the “antiacetylcholinesterase potency versus neostigmine” value is “more potent than neostigmine”. The muscarinic activity entry with muscarinic activity is “less muscarinic activity”. For the same molecule, the ED (maximum effect) in series [6] came to 0.025 mg/kg. For the same molecule, in series [7], the “Potency, Mouse Miosis” value is given as 9.6 and the “in vivo potency versus neostigmine” value is given as “more potent than neostigmine”.
With `CC[N+](CC)(CCNC(=O)C(=O)NCC[N+](CC)(CC)Cc1ccccc1Cl)Cc1ccccc1Cl` [Ambenonium, reference compound], the “Potency, Rat chromod.” value in [1] turned out to be 0.03. The “Potency, Mouse Miosis” value in [7] stood at 0.06.
Turning to `CC[N+](C)(C)c1cccc(O)c1` [Edrophonium, reference compound], in series [1], the “Potency, Rat chromod.” value turned out to be 0.09. Besides, the “Potency, Mouse Miosis” value in [7] is given as 0.04.
Take `CN(C)C(=O)Oc1cccc([N+](C)(C)C)c1` [Neostigmine, reference compound]: the “recovery from tubocurarine block” value in [8] is “Prompt recovery”. The ED (maximum effect) in [3] and in series [6] was 0.1 mg/kg throughout. Moreover, in the series with acetylcholinesterase [9], the “reversal of enzyme inhibition” value was “relatively slow reversal”. Besides, in [4], the LD50 was found to be 0.2 mg/kg. For the same molecule, the “clinical intravenous dose to reverse the neuromuscular effects of tubocurarine” value in [10] was 2.5 to 3.0 mg. In series [5], this molecule came in with a Ki of 30 nM.
In the case of `CN(C)C(=O)Oc1ccc[n+](C)c1` [Pyridostigmine, reference compound], in the series on acetylcholinesterase [9], the “reversal of enzyme inhibition” value is “relatively slow reversal”. The molecule also showed a Ki in [5] of 4800 nM.
On to `Nc1c2c(nc3ccccc13)CCCC2` [Tacrine, reference compound], for which, in series [1], the “Potency, Rat chromod.” value is listed as 0.38. Moreover, the “Potency, Mouse Miosis” value in [7] was found to be 0.21.

Values taken from US3998843A (priority 1972, dated 1976).
